Assay results from patent US20090203685A1, “ANTI-PROLIFERATIVE COMPOUNDS FROM A 3-ARYL-COUMARINE OR 3-ARYL-QUINOLIN-2-ONE AND USES THEREOF” (EOS (ETHICAL ONCOLOGY SCIENCE) S.P.A., priority 2006, published 2009).

How the values were obtained:
U937 = experiment: Cell cycle analysis, U937; assay type: cell-based, human; details: 500 nM
Protocol: (§1) The cells are pelleted by gentle centrifugation 1200 rpm/5 min/4° C., then the supernatant is discarded and the cells are fixed with 1 mL of PBS/Ethanol 70% overnight at −20° C. The tubes are then centrifuged during 5 minutes at 1200 rpm and the supernatant is removed. The pellet is then re-suspended in 450 μL of PBS before 50 μL of RNAse (1 mg/mL) and 5 μL of propidium iodide (2 mg/mL) are added. Each tube is left 30 minutes at 37° C. and immediately analysed by flow cytometry after incubation.
(§2) A biparametric dot plot representation FL3 peak vs FL3 integer is plotted and the cells located on the diagonal are gated and analysed on a histogram representing the number of cells as a function of the FL3 peak.
(§3) To assess the relative position of cursors defining relative proportion of cells in subG1, G1, S or G2 phase of the cell cycle, G1 and G2 peaks are to be defined first:
(§4) The G1 peak is defined as the major peak in absence of treatment (generally X=200);
(§5) The G2 peak is centered on the value which is twice the value of the G1 peak (generally X=400).
(§6) Cells in subG1 phase are plotted in the part of the histogram preceding the G1 peak (generally X<200) and cells in S phase are enclosed in the area between the G1 and G2 peaks.
(§7) On this graphic, subG1, G1, S and G2/M phases of the cell cycle can thus be defined.
(§8) Viability and cell cycle profile, tested with compound (01), at 500 nM: […]

MRC5 = experiment: Cell cycle analysis, MRC5; assay type: cell-based; details: 500 nM
Protocol: as §1, §2, §3, §4, §5, §6, §7, §8

[1] = Viability (propidium iodide staining), CEM; assay type: cell-based; details: human, CEM cells (lymphoid), 500 nM
Protocol: (§9) Propidium iodide (PI) cannot normally cross the cell membrane; it is thus excluded by viable cells but not from dying or dead cells, having a damaged membrane, where it intercalates into double-stranded nucleic acids and fluoresces when excited at 488 nm.
(§10) The cells are pelleted by gentle centrifugation 1200 rpm/5 min/4° C., then the supernatant is discarded and replaced by 1 mL of fresh medium. One hundred microliters of propidium iodide (40 μg/mL) are added to 400 μL of the cell suspension in a FACS tube and viability is measured by flow cytometry as the percentage of cells whose fluorescence recorded on FL-3 channel is comprised between 0 and 2.
as §8

[2] = Viability (propidium iodide staining), A375; assay type: cell-based; details: human, A375 cells (melanoma), 500 nM
Protocol: as §9, §10, §8

PC3 = experiment: Cell cycle analysis, PC3; assay type: cell-based; details: 500 nM
Protocol: as §1, §2, §3, §4, §5, §6, §7, §8

CEM = experiment: Cell cycle analysis, CEM; assay type: cell-based; details: 500 nM
Protocol: as §1, §2, §3, §4, §5, §6, §7, §8

SMILES: COc1cc(NC(=S)NC(=O)/C=C/c2ccco2)ccc1-c1cc2ccccc2oc1=O [Compound 01, (2E)-3-(2-furyl)-N-({[3-methoxy-4-(2-oxo-2H-chromen-3-yl)phenyl]amino}carbonothioyl)acrylamide]
- Cell cycle profile - 72 h (U937): Strong sub-G1
- Cell cycle profile - 72 h (MRC5): G2/M accumulation
- viability at 48 h, 0.5 µM ([1]; 48 h): 10%
- viability at 72 h, 0.5 µM ([1]; 72 h): 2%
- viability at 48 h, 0.5 µM ([2]; 48 h): 65%
- viability at 72 h, 0.5 µM ([2]; 72 h): 35%
- Cell cycle profile - 72 h (PC3): G2/M accumulation
- Cell cycle profile - 72 h (CEM): Strong sub-G1
